# Experimental data: PubChem BioAssay (NCI)
# Where “and” joins values, the source holds several entries; their conditions need not be identical. Identical values can stand only once.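 Interpolation was linear, between the two tested concentrations surrounding the appropriate level; five concentrations were tested over 48 hours in 96-well plates. Here, GI50 denotes the concentration required for 50% inhibition of growth. At the TGI there is no net growth.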
# Columns and labels:
# Assay in all cases: NCI anticancer screen, dose series, 48 h
# [1] = tested on: EKVX NSCLC
# [2] = tested on: HL-60(TB) leukemia
# [3] = tested on: MALME-3M melanoma
# [4] = tested on: K-562 leukemia
# [5] = tested on: ACHN renal
# [6] = tested on: UACC-62 melanoma
# [7] = tested on: SK-MEL-2 melanoma
# [8] = tested on: NCI-H226 lung
# [9] = tested on: A498 renal
# [10] = tested on: SK-MEL-5 melanoma
# [11] = tested on: KM12 colon
# [12] = tested on: PC-3 prostate
# [13] = tested on: SK-OV-3 ovarian
# [14] = tested on: HCC-2998 colon
# [15] = tested on: NCI-H460 lung
# [16] = tested on: RPMI-8226 leukemia
# [17] = tested on: NCI-H522 lung
# [18] = tested on: SF-295 CNS
# [19] = tested on: OVCAR-8 ovarian
# [20] = tested on: SF-268 CNS
# [21] = tested on: UACC-257 melanoma
# [22] = tested on: IGROV1 ovarian
# [23] = tested on: BT-549 breast
# [24] = tested on: HOP-62 NSCLC
# [25] = tested on: A549 NSCLC
# [26] = tested on: SNB-75 CNS
# [27] = tested on: M14 melanoma
# [28] = tested on: HCT-116 colon
# [29] = tested on: COLO 205 colon
# [30] = tested on: NCI-H23 lung
# [31] = tested on: OVCAR-4 ovarian
# [32] = tested on: MDA-MB-435
# [33] = tested on: OVCAR-5 ovarian
# [34] = tested on: SW-620 colon
# [35] = tested on: CCRF-CEM leukemia
# [36] = tested on: OVCAR-3 ovarian
# [37] = tested on: MDA-MB-231 breast
# [38] = tested on: MDA-N
# [39] = tested on: MOLT-4 leukemia
# [40] = tested on: RXF 393 renal
# [41] = tested on: LOX IMVI melanoma
# [42] = tested on: SNB-19 CNS
# [43] = tested on: SR leukemia
# [44] = tested on: T-47D breast
# [45] = tested on: HCT-15 colon
# [46] = tested on: U251 CNS
# [47] = tested on: HT29 colon
# [48] = tested on: DU-145 prostate
# [49] = tested on: SF-539 CNS
# [50] = tested on: 786-0 renal
# [51] = tested on: NCI/ADR-RES ovarian
# [52] = tested on: HOP-92 NSCLC
# [53] = tested on: HS 578T breast
# [54] = tested on: SN12C renal
# [55] = tested on: MCF7 breast
# [56] = tested on: TK-10 renal
# [57] = tested on: CAKI-1 renal
# [58] = tested on: SK-MEL-28 melanoma
# [59] = tested on: UO-31 renal
structure (smiles),measurement,setting,value
Cc1coc2c1CC1(C)C(CCC(O)C1C)C2 (centres undefined),TGI,[1],> 100000 nM
same,TGI,[2],> 100000 nM
same,TGI,[3],> 100000 nM
same,TGI,[4],> 100000 nM
same,TGI,[5],> 100000 nM
same,TGI,[6],> 100000 nM
same,TGI,[7],> 100000 nM
same,TGI,[8],> 100000 nM
same,TGI,[9],> 100000 nM
same,TGI,[10],> 100000 nM
same,TGI,[11],> 100000 nM
same,TGI,[12],> 100000 nM
same,TGI,[13],> 100000 nM
same,TGI,[14],> 100000 nM
same,TGI,[15],> 100000 nM
same,TGI,[16],> 100000 nM
same,TGI,[17],> 100000 nM
same,TGI,[18],> 100000 nM
same,TGI,[19],> 100000 nM
same,TGI,[20],> 100000 nM
same,TGI,[21],> 100000 nM
same,TGI,[22],> 100000 nM
same,TGI,[23],> 100000 nM
same,TGI,[24],> 100000 nM
same,TGI,[25],> 100000 nM
same,TGI,[26],> 100000 nM
same,TGI,[27],> 100000 nM
same,TGI,[28],> 100000 nM
same,TGI,[29],> 100000 nM
same,TGI,[30],> 100000 nM
same,TGI,[31],> 100000 nM
same,TGI,[32],> 100000 nM
same,TGI,[33],> 100000 nM
same,TGI,[34],> 100000 nM
same,TGI,[35],> 100000 nM
same,TGI,[36],> 100000 nM
same,TGI,[37],> 100000 nM
same,TGI,[38],> 100000 nM
same,TGI,[39],> 100000 nM
same,TGI,[40],> 100000 nM
same,TGI,[41],> 100000 nM
same,TGI,[42],> 100000 nM
same,TGI,[43],> 100000 nM
same,TGI,[44],> 100000 nM
same,TGI,[45],> 100000 nM
same,TGI,[46],> 100000 nM
same,TGI,[47],> 100000 nM
same,TGI,[48],> 100000 nM
same,TGI,[49],> 100000 nM
same,TGI,[50],> 100000 nM
same,TGI,[51],> 100000 nM
same,TGI,[52],> 100000 nM
same,TGI,[53],> 100000 nM
same,TGI,[54],> 100000 nM
same,TGI,[55],> 100000 nM
same,TGI,[56],> 100000 nM
same,TGI,[57],> 100000 nM
CC[C@@]1(O)C[C@H](OC2CC(N(C)C)C(O)C(C)O2)c2c(O)c3c(c(O)c2[C@H]1OC1CC(N(C)C)C(O)C(C)O1)C(=O)c1cccc(O)c1C3=O (some centres undefined),GI50,[1],< 10 nM
same,TGI,[1],538 nM and 167 nM
same,GI50,[58],< 10 nM
same,TGI,[58],135 nM and 40.5 nM
same,GI50,[2],10.2 nM
same,GI50,[3],< 10 nM
same,GI50,[4],< 10 nM
same,GI50,[5],30 nM and < 10 nM
same,TGI,[5],< 10 nM
same,GI50,[6],< 10 nM
same,TGI,[6],71.1 nM and < 10 nM
same,GI50,[7],< 10 nM
same,TGI,[7],56.8 nM and < 10 nM
same,GI50,[8],< 10 nM
same,GI50,[9],< 10 nM
same,GI50,[10],< 10 nM
same,GI50,[11],< 10 nM
same,GI50,[12],< 10 nM
same,GI50,[13],< 10 nM
same,TGI,[13],375 nM and 64.3 nM
same,GI50,[14],< 10 nM
same,TGI,[14],75.9 nM and 21.6 nM
same,GI50,[15],< 10 nM
same,TGI,[15],304 nM and 662 nM
same,GI50,[16],< 10 nM
same,TGI,[16],581 nM and 91.9 nM
same,GI50,[17],< 10 nM
same,TGI,[17],85.7 nM and < 10 nM
same,GI50,[18],< 10 nM
same,GI50,[19],< 10 nM
same,TGI,[19],400 nM and 1100 nM
same,GI50,[20],< 10 nM
same,GI50,[21],< 10 nM
same,GI50,[22],< 10 nM
same,TGI,[22],2940 nM
same,GI50,[23],< 10 nM
same,TGI,[23],293 nM and 102 nM
same,GI50,[24],< 10 nM
same,TGI,[24],192 nM
same,GI50,[26],< 10 nM
same,GI50,[27],< 10 nM
same,GI50,[28],< 10 nM
same,GI50,[29],< 10 nM
same,TGI,[29],149 nM and 29.7 nM
same,GI50,[30],< 10 nM
same,GI50,[31],< 10 nM
same,TGI,[31],601 nM and 147 nM
same,GI50,[32],< 10 nM
same,TGI,[32],123 nM and 18.7 nM
same,GI50,[33],< 10 nM
same,GI50,[34],< 10 nM
same,TGI,[34],14.9 nM
same,GI50,[35],< 10 nM
same,TGI,[35],204 nM
same,GI50,[36],< 10 nM
same,TGI,[36],< 10 nM
same,GI50,[37],< 10 nM
same,GI50,[38],< 10 nM
same,TGI,[38],156 nM and 113 nM
same,GI50,[39],< 10 nM
same,TGI,[39],57.3 nM
same,GI50,[40],< 10 nM
same,TGI,[40],64.3 nM and < 10 nM
same,TGI,[41],92.3 nM
same,GI50,[42],< 10 nM
same,TGI,[42],11100 nM
same,GI50,[43],< 10 nM
same,TGI,[43],27.3 nM
same,GI50,[44],< 10 nM
same,TGI,[44],37.9 nM
same,GI50,[45],23.8 nM
same,TGI,[45],971 nM and 1290 nM
same,GI50,[46],< 10 nM
same,GI50,[47],< 10 nM
same,TGI,[47],353 nM and 109 nM
same,GI50,[48],< 10 nM
same,TGI,[48],11300 nM
same,GI50,[49],< 10 nM
same,TGI,[49],212 nM and 183 nM
same,GI50,[59],< 10 nM
same,GI50,[50],< 10 nM
same,GI50,[51],< 10 nM
same,TGI,[51],842 nM and 334 nM
same,GI50,[52],< 10 nM
same,GI50,[53],< 10 nM
same,TGI,[53],388 nM and 72.4 nM
same,GI50,[54],< 10 nM
same,TGI,[54],1040 nM
same,GI50,[55],< 10 nM
same,TGI,[55],381 nM and 74.3 nM
same,GI50,[56],< 10 nM
same,TGI,[57],54.5 nM
